In ChEMBL document CHEMBL4706653, “Ultra-short lipopeptides against gram-positive bacteria while alleviating antimicrobial resistance” (Eur J Med Chem, 2021):
In brackets after ≈: the same amount, converted by molar mass. Residues, ends and D or L forms follow the SMILES beside them. *: point of attachment. Lauroyl = CCCCCCCCCCCC(=O)*; Decanoyl = CCCCCCCCCC(=O)*; Octanoyl = CCCCCCCC(=O)*

Key:
Bacillus subtilis = assay: Antimicrobial activity against Bacillus subtilis ATCC 23857 after 18 hrs by broth microdilution method; type: functional
[1] = Therapeutic index, ratio of MHC for mouse RBC to geometric mean of peptide MIC for Staphylococcus epidermidis ATCC 12228; type: toxicity; conditions: pooled result: one value given for 6 cell lines, strains, targets or settings, read-out: TI
[2] = test system: Staphylococcus epidermidis; assay: Antimicrobial activity against Staphylococcus epidermidis ATCC 12228 after 18 hrs by broth microdilution method; type: functional
Staphylococcus aureus [3] = assay: Antimicrobial activity against methicillin-resistant Staphylococcus aureus 75 after 18 hrs by broth microdilution method; type: functional
Staphylococcus aureus [4] = assay: Antimicrobial activity against Staphylococcus aureus ATCC 29213 after 18 hrs by broth microdilution method; type: functional
Staphylococcus aureus [5] = assay: Antimicrobial activity against Staphylococcus aureus ATCC 25923 after 18 hrs by broth microdilution method; type: functional
Erythrocyte = assay: Hemolytic activity against mouse erythrocytes measured after 1 hr; type: ADME, cell-based
Staphylococcus aureus [6] = assay: Antimicrobial activity against methicillin-resistant Staphylococcus aureus 113 after 18 hrs by broth microdilution method; type: functional

| Structure (SMILES) | MIC (Bacillus subtilis) | selectivity ratio [1] | MIC [2] | MIC (Staphylococcus aureus [3]) | MIC (Staphylococcus aureus [4]) | MIC (Staphylococcus aureus [5]) | MHC10 (Erythrocyte) | MIC (Staphylococcus aureus [6]) |
| --- | --- | --- | --- | --- | --- | --- | --- | --- |
| CCCCCCCCCC(=O)N[C@@H](CCCNC(=N)N)C(=O)N[C@@H](CCCNC(=N)N)C(=O)N[C@@H](CCCNC(=N)N)C(N)=O (Decanoyl-Arg-Arg-Arg-NH2) | 32 µM (≈ 20.5 µg/mL) | 5.05 | 64 µM (≈ 41 µg/mL) | 128 µM (≈ 81.9 µg/mL) | 128 µM (≈ 81.9 µg/mL) | 128 µM (≈ 81.9 µg/mL) | > 256 µM | 128 µM (≈ 81.9 µg/mL) |
| CCCCCCCCCC(=O)N[C@@H](CCCNC(=N)N)C(=O)N[C@@H](CCCNC(=N)N)C(=O)N[C@@H](Cc1c[nH]c2ccccc12)C(N)=O (Decanoyl-Arg-Arg-Trp-NH2) | 8 µM (≈ 5.36 µg/mL) | 32 | 16 µM (≈ 10.7 µg/mL) | 16 µM (≈ 10.7 µg/mL) | 16 µM (≈ 10.7 µg/mL) | 32 µM (≈ 21.4 µg/mL) | > 256 µM | 8 µM (≈ 5.36 µg/mL) |
| CCCCCCCCCC(=O)N[C@@H](CCCNC(=N)N)C(=O)N[C@@H](Cc1c[nH]c2ccccc12)C(=O)N[C@@H](CCCNC(=N)N)C(N)=O (Decanoyl-Arg-Trp-Arg-NH2) | 16 µM (≈ 10.7 µg/mL) | 3.43 | 16 µM (≈ 10.7 µg/mL) | 16 µM (≈ 10.7 µg/mL) | 32 µM (≈ 21.4 µg/mL) | 16 µM (≈ 10.7 µg/mL) | > 256 µM | 16 µM (≈ 10.7 µg/mL) |
| CCCCCCCCCC(=O)N[C@@H](CCCNC(=N)N)C(=O)N[C@@H](Cc1c[nH]c2ccccc12)C(=O)N[C@@H](Cc1c[nH]c2ccccc12)C(N)=O (Decanoyl-Arg-Trp-Trp-NH2) | 16 µM (≈ 11.2 µg/mL) | 27.4 | 32 µM (≈ 22.4 µg/mL) | 8 µM (≈ 5.6 µg/mL) | 16 µM (≈ 11.2 µg/mL) | 32 µM (≈ 22.4 µg/mL) | > 256 µM | 8 µM (≈ 5.6 µg/mL) |
| CCCCCCCCCC(=O)N[C@@H](Cc1c[nH]c2ccccc12)C(=O)N[C@@H](CCCNC(=N)N)C(=O)N[C@@H](CCCNC(=N)N)C(N)=O (Decanoyl-Trp-Arg-Arg-NH2) | 8 µM (≈ 5.36 µg/mL) | 21.3 | 8 µM (≈ 5.36 µg/mL) | 16 µM (≈ 10.7 µg/mL) | 16 µM (≈ 10.7 µg/mL) | 8 µM (≈ 5.36 µg/mL) | 256 µM | 16 µM (≈ 10.7 µg/mL) |
| CCCCCCCCCCCC(=O)N[C@@H](CCCNC(=N)N)C(=O)N[C@@H](CCCNC(=N)N)C(=O)N[C@@H](CCCNC(=N)N)C(N)=O (Lauroyl-Arg-Arg-Arg-NH2) | 8 µM (≈ 5.34 µg/mL) | 25.6 | 16 µM (≈ 10.7 µg/mL) | 32 µM (≈ 21.4 µg/mL) | 16 µM (≈ 10.7 µg/mL) | 32 µM (≈ 21.4 µg/mL) | > 256 µM | 16 µM (≈ 10.7 µg/mL) |
| CCCCCCCCCCCC(=O)N[C@@H](CCCNC(=N)N)C(=O)N[C@@H](Cc1c[nH]c2ccccc12)C(=O)N[C@@H](CCCNC(=N)N)C(N)=O (Lauroyl-Arg-Trp-Arg-NH2) | 8 µM (≈ 5.58 µg/mL) | 8 | 8 µM (≈ 5.58 µg/mL) | 4 µM (≈ 2.79 µg/mL) | 8 µM (≈ 5.58 µg/mL) | 16 µM (≈ 11.2 µg/mL) | 64 µM | 4 µM (≈ 2.79 µg/mL) |
| CCCCCCCCCCCC(=O)N[C@@H](CCCNC(=N)N)C(=O)N[C@@H](Cc1c[nH]c2ccccc12)C(=O)N[C@@H](Cc1c[nH]c2ccccc12)C(N)=O (Lauroyl-Arg-Trp-Trp-NH2) | 64 µM (≈ 46.6 µg/mL) | 12.8 | 64 µM (≈ 46.6 µg/mL) | 8 µM (≈ 5.82 µg/mL) | 64 µM (≈ 46.6 µg/mL) | 32 µM (≈ 23.3 µg/mL) | > 256 µM | 8 µM (≈ 5.82 µg/mL) |
| CCCCCCCC(=O)N[C@@H](CCCNC(=N)N)C(=O)N[C@@H](CCCNC(=N)N)C(=O)N[C@@H](CCCNC(=N)N)C(N)=O (Octanoyl-Arg-Arg-Arg-NH2) | > 128 µM |  | > 128 µM | > 128 µM | > 128 µM | > 128 µM | > 256 µM | > 128 µM |
| CN[C@H](CC(C)C)C(=O)N[C@H]1C(=O)N[C@@H](CC(N)=O)C(=O)N[C@H]2C(=O)N[C@H]3C(=O)N[C@H](C(=O)N[C@H](C(=O)O)c4cc(O)cc(O)c4-c4cc3ccc4O)[C@H](O)c3ccc(c(Cl)c3)Oc3cc2cc(c3O[C@@H]2O[C@H](CO)[C@@H](O)[C@H](O)[C@H]2O[C@H]2C[C@](C)(N)[C@H](O)[C@H](C)O2)Oc2ccc(cc2Cl)[C@H]1O [VANCOMYCIN] | < 1 µM |  | < 1 µM | < 1 µM | < 1 µM | < 1 µM |  | < 1 µM |
